The target in the experiment is T1, Gamma-aminobutyric acid receptor subunit alpha-5 (Homo sapiens, UniProt P31644).
T1 sequence (P31644 whole entry): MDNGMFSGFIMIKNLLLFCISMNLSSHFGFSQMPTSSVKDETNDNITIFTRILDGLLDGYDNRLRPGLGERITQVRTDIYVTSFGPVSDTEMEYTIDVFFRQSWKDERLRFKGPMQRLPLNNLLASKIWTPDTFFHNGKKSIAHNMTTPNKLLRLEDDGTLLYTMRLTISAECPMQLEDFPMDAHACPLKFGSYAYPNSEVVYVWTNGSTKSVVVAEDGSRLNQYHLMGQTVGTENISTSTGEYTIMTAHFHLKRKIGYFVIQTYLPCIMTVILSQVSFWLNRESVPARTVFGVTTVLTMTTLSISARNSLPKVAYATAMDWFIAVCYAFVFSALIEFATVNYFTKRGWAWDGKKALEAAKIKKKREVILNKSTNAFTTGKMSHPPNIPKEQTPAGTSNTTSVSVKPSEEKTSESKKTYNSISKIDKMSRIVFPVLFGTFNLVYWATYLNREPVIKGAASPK
Description: Binding Assay. As to the method:
Receptor binding assays were performed in 96-well format in deep-well plates. For each 96-well plate one ampulle of membrane homogenate was thawed and diluted in binding buffer (50 mM Tris pH=7.4, 100 mM KCl) and 200 μL was dispensed into each well. Radioligand [3H]Ro151788 (Perkin Elmer: NET757250UC) was prepared in binding buffer and added to each well in 50 μL volume to give final concentration of 0.5 nM. Test compounds in suitable concentration(s) were added in additional 50 μL. The final assay volume was 300 μL. Incubation was carried out for 60 minutes at 4° C. For non-specific binding 10 μM unlabeled diazepam was used. After incubation samples were filtered over UniFilter GF/B™ using Filtermate Harvester (Perkin Elmer) and washed with 5×1 mL binding buffer. The plate was dried at 40° C. for an hour and 40 μL Microscint (Perkin Elmer) scintillation cocktail was added to each well. The plate was read in Microbeta (Perkin Elmer).

`Cc1nnn(-c2ccc(F)cc2)c1COc1ccc2c(n1)CN(C(=O)C(F)(F)F)C2` [US12370182, Example 51] had a Ki of 31 nM.

`Cc1onc(-c2ccc(F)cc2)c1COc1ccc2c(n1)CCN(C(=O)N1CCCCC1)C2` [US12370182, Example 85] yielded an inhibition constant (Ki) of 36 nM.

For orientation: Ki means the dissociation constant of the complex between target and ligand, obtained from inhibition or displacement. Lower therefore signals a stronger hold on the target.

The values above are taken from BindingDB's records for patent US12370182 (Richter Gedeon, 2025).
